Experimental data reported in PubChem BioAssay (NCI).
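A five-concentration, 48-hour dose response in 96-well plates underlies each endpoint, interpolated linearly between surrounding concentrations. GI50 = concentration required for 50% inhibition of growth. At the TGI there is no net growth.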

How the values were obtained:
Assay in all cases: NCI tumour cell line growth inhibition, 48 h
[1] = tested on: NCI/ADR-RES ovarian
[2] = tested on: UACC-257 melanoma
[3] = tested on: NCI-H23 lung
[4] = tested on: M14 melanoma
[5] = tested on: MDA-MB-231 breast
[6] = tested on: T-47D breast
[7] = tested on: UO-31 renal
[8] = tested on: OVCAR-8 ovarian
[9] = tested on: CAKI-1 renal
[10] = tested on: KM12 colon

| SMILES | GI50 [1] | TGI [1] | GI50 [2] | TGI [2] | GI50 [3] | TGI [3] | GI50 [4] | TGI [4] | GI50 [5] | TGI [5] | GI50 [6] | TGI [6] | GI50 [7] | TGI [7] | GI50 [8] | TGI [8] | GI50 [9] | TGI [9] | GI50 [10] | TGI [10] |
| --- | --- | --- | --- | --- | --- | --- | --- | --- | --- | --- | --- | --- | --- | --- | --- | --- | --- | --- | --- | --- |
| C=CC(COC(c1ccccc1)(c1ccccc1)c1ccccc1)N(CC)CC (configuration not stated) | 3.88 µM | 18.2 µM | 2.27 µM | 6.32 µM | 6.07 µM | 19.9 µM | 2.53 µM | 6.19 µM | 3.35 µM | 13.5 µM | 4.6 µM | 19.8 µM | 3.54 µM | 16.4 µM | 5.87 µM | 20.1 µM | 2.43 µM | 11.8 µM | 4.33 µM | 14.8 µM |
| O=C(/C=C\c1ccccc1)N1CCc2ccccc2C1 |  | > 100 µM |  | > 100 µM |  | 51.9 µM |  | > 100 µM |  | > 100 µM |  | > 100 µM |  | > 100 µM |  | > 100 µM |  | > 100 µM |  | > 100 µM |
| C/C(=N\NC(=S)N(C)C)c1ccccn1 | 0.000321 µM | 2.31 µM | 0.000438 µM |  |  | 18.7 µM | 0.00884 µM | 11.5 µM | 0.291 µM | 17.6 µM |  | 11.5 µM | 0.166 µM | 3.91 µM | 0.00318 µM | 10.8 µM | 0.0567 µM | 12.5 µM | 0.22 µM | 20 µM |
| COc1cccc2c1n([O-])c1cccc(OC)c1[n+]2=O | 3.81 µM | 22.7 µM | 9.69 µM | 28.7 µM | 4.82 µM | 28 µM | 7.02 µM | 26.5 µM | 20.9 µM | > 100 µM | 2.39 µM | 10.3 µM | 6.7 µM | 32.7 µM | 4.51 µM | 35.8 µM | 3.97 µM | 76.5 µM | 10.6 µM | 29.6 µM |
| CCN(CC)C(=S)[S][Bi]([S]C(=S)N(CC)CC)[S]C(=S)N(CC)CC | 0.277 µM | 0.85 µM | 0.178 µM | 0.384 µM | 0.211 µM | 0.582 µM | 0.218 µM | 0.485 µM | 0.133 µM | 0.338 µM | 0.122 µM | 0.341 µM | 0.216 µM | 0.468 µM | 0.284 µM | 0.755 µM | 0.199 µM | 0.776 µM | 1.61 µM | 3.1 µM |
| CCCCCCCCCCCCCCCCCC(=O)Nc1ccn(C2OC(CO)C(O)C2O)c(=O)n1 (configuration not stated) |  | > 100 µM |  | > 100 µM |  | 98.7 µM |  | > 77.3 µM |  | > 100 µM |  | > 100 µM |  | > 79.3 µM |  | > 84.8 µM |  | > 100 µM |  | > 100 µM |
| O=C(NC(=S)Nc1cc(Cl)ccc1O)c1cccc(Br)c1 | 5.77 µM | 98 µM | 15.3 µM | > 100 µM | 7.93 µM | > 100 µM | 26.3 µM | > 100 µM | 17 µM | > 100 µM | 3.71 µM | > 100 µM | 6.12 µM | 56.3 µM | 6.54 µM | > 100 µM | 4.34 µM | > 100 µM | 5.78 µM | > 100 µM |
